Series [1] has as its target mushroom tyrosinase. Put plainly: Tyrosinase inhibition assay (o-diphenolase activity, L-DOPA as substrate). In kind it is biochemical. The settings on record: mushroom tyrosinase 30 units (28 nM), L-DOPA 0.5 mM, pH 6.8, absorbance at 475 nm, mean ± S.E.M., at least triplicates; read-out: IC50 ± SEM (in μM), tyrosinase inhibitory activity. As to the method: Tyrosinase inhibition assays were performed in 96-well microplate format using SpectraMax 340 microplate reader (Molecular Devices, CA, USA) according to the method developed by Hearing (1987). Briefly, first the compounds were screened for the o-diphenolase inhibitory activity of tyrosinase using L-DOPA as substrate. […] Compounds were dissolved in methanol to a concentration of 2.5%. 30 units of mushroom tyrosinase (28 nM from Sigma Chemical Co., USA) first preincubated with the compounds in […] Na-phosphate buffer (pH 6.8) for 10 min at 25° C. Then, the L-DOPA (0.5 mM) was added to the reaction mixture and the enzyme reaction was monitored by measuring the change in absorbance at 475 nm (at 37° C.) due to the formation of the DOPA chrome for 10 min. The percent inhibition of the enzyme was calculated as =[…], wherein the B and S are absorbance for the blank and samples, respectively. After screening, the compounds median inhibitory concentration (IC50) was also calculated. […] (Hearing et al., Int J Biochem, 19(12): 1141-71987).

In series [2] the test system is Salmonella typhimurium. To be noted: studies referred to, no data of the applicant; cited from earlier work.

As usually defined, the IC50 is the concentration that gives 50% inhibition. Broadly, the melting point is the temperature of the solid-liquid transition.

On to `C#CC1(O)CCC2C3C(C)CC4=CC(=O)CCC4(O)C3CCC21C` (stereo not drawn) [Metabolite 4, 10β-Hydroxy-Δ^4-Tibolone], for which the IC50 in series [1] was found to be 119.4 ± 0.2 µM.

In turn, `C#CC1(O)CC(O)C2C3C(C)C=C4CC(=O)CCC4C3C(O)CC21C` (stereo not drawn) [Metabolite 6, 11α,15β-Dihydroxy-Δ^5-Tibolone] gave a melting point of 207 to 211 °C. Besides, the IC50 in series [1] was determined as 7.1 ± 0.13 µM.

For the compound `C#CC1(O)CC(O)C2C3C(C)CC4=C(CCC(=O)C4)C3CCC21C` (stereo not drawn) [Metabolite 2, 15β-Hydroxytibolone], the IC50 in series [1] was 50.86 ± 0.36 µM.

`C#CC1(O)CCC2C3C(C)C(OC)C4=CC(=O)CCC4C3CCC21C` (stereo not drawn) [Metabolite 8, 6β-Methoxy-Δ^4-Tibolone]: the IC50 in series [1] turned out to be 25.15 ± 0.24 µM.

Regarding `N[C@@H](Cn1ccc(=O)c(O)c1)C(=O)O` [L-Mimosine, L-mimosine, reference compound], the half-maximal inhibitory concentration (IC50) in series [1] amounted to 3.68 ± 0.022 µM.

Take `C#CC1(O)CC(O)C2C3C(C)CC4=C(CCC(=O)C4)C3C(O)CC21C` (stereo not drawn) [Metabolite 5, 11α,15β-Dihydroxytibolone]: the melting point fell in the range of 208 to 210 °C. In addition, the 50% inhibitory concentration (IC50) in series [1] is 5.12 ± 0.67 µM.

`C#CC1(O)CCC2C3C(CCC21C)C1=C(CC(=O)CC1)C(O)C3C` (stereo not drawn) [Metabolite 1, 6β-Hydroxytibolone] gave a melting point of 202 to 205 °C. In series [1], the IC50 amounted to 7.45 ± 0.21 µM.

For `C#CC1(O)CCC2C3C(C)C(O)C4=CC(=O)CCC4C3CCC21C` (stereo not drawn) [Metabolite 7, 6β-Hydroxy-Δ^4-Tibolone], in series [1], the IC50 stood at 36.14 ± 0.21 µM.

Regarding `C#CC1(O)CCC2C3C(C)CC4=CC(=O)CCC4C3CCC21C` (stereo not shown) [Metabolite 3, Δ^4-Tibolone], the IC50 in series [1] is 8.19 ± 0.54 µM.

Consider `O=c1cc(CO)occ1O` [Kojic acid], for which the “mutagenic activity in a Salmonella typhimurium assay” value in series [2] is recorded as “weak mutagenic activity”.

Values taken from patent US20090136434A1, “Tyrosinase enzyme inhibitors from fungal hydroxylation of tibolone” (HEJ Research Institute, priority 2007, published 2009).
